Read-outs that look alike come from different tables or passages of the source. Ends that are not written are not given here.
Key:
S. aureus BNCC186335 = assay type: cell-based; conditions: BNCC186335, 18 h
Experimental: (§1) The antimicrobial activity of the synthesized AMPs was evaluated against several strains, including E. coli BL21(DE3), S. aureus BNCC186335, B. subtilis BNCC109047, and drug‐resistant strains such as E coli XJ13000957, E. coli XJ13022488, E. coli XJ19025100, E. coli XJ22006301, and MRSA ATCC43300. All strains are stored at ‐80°C and, before testing, were transferred into fresh Mueller‐Hinton Medium and incubated for 24 h at 37°C. Fresh cultures were used for the antimicrobial assays. The MIC values were determined using the broth microdilution method according to the Clinical and Laboratory Standards Institute (CLSI) protocol. Initial bacterial inoculums (5× 10^5 colony forming units (CFU)/mL) in Mueller‐Hinton Broth were exposed to varying concentrations of the compounds (0.5‐512 µg/mL) and incubated for 18 h at 37°C. The experiments are conducted on 96‐well microtiter plates with a final volume of 100 µL. The MIC was defined as the lowest concentration of the compound that inhibits visible bacterial growth. Additionally, the MBC was evaluated. After determining the MIC, samples from the MIC well and two higher concentrations are plated on agar plates. The MBC was recorded as the lowest concentration at which no visible bacterial colonies were observed. All experiments were performed in triplicate, with positive controls (ensuring proper bacterial growth) and negative controls (ensuring sterility) included.

B. subtilis BNCC109047 = assay type: cell-based; conditions: BNCC109047, 18 h
Experimental: as §1

E. coli BL21(DE3) = assay type: cell-based; conditions: BL21, 18 h
Experimental: as §1

MC3T3-E1 cells = assay type: cell-based, mouse
Text: (§2) The assessment of cytotoxicity primarily relies on alterations in cell membrane permeability. To evaluate the cytotoxicity of AMPs, we employed the Cell Counting Kit‐8 (CCK‐8) assay, which is widely recognized as one of the most frequently used methods for assessing cytotoxicity. The CCK‐8 assay utilizes WST‐8 [2‐(2‐Methoxy‐4‐nitrophenyl)‐3‐(4‐nitrophenyl)‐5‐(2,4‐disulfophenyl)‐2H‐tetrazolium Sodium Salt] for rapid detection based on the principle that intracellular dehydrogenase‐mediated biological reduction of WST‐8 generates an orange formazan dye. This dye can dissolve in the medium, and its quantity is directly proportional to the number of viable cells. For the cytotoxicity test, 2 000 MC3T3‐E1 cells or CH3 cells were seeded into each well of 96‐well plates and cultured in DMEM medium containing 10% FBS and 1% penicillin‐streptomycin at 37 °C and 5% CO2overnight. Then the culture medium was removed, and the AMPs at the various concentrations in the media were added to each well. The cells were further incubated for 48 h, followed by the addition of […] of CCK‐8 and subsequent incubation for 1 h. The absorbance of the solution was measured at 450 nm by a microplate reader. The cell viability was calculated as follows (A represents absorbance): (11) %Cell viability=Asample−Ablank/Anegative−Ablank×100
The data were plotted as AMP concentration versus the percentage of living cells using GraphPad Prism 8.0.

E. coli XJ19025100 = assay type: cell-based; conditions: XJ19025100, 18 h
Experimental: as §1

[1] = system: bone marrow mesenchymal stem cells CH3; assay type: cell-based
Text: as §2, with “viability=Asample−Ablank/Anegative−Ablank×100 […]” for “viability=Asample−Ablank/Anegative−Ablank×100”

human red blood cells = assay type: cell-based; conditions: 3 h
Experimental: Anticoagulant whole blood was diluted with PBS at a ratio of 1:1 and subsequently centrifuged at 1500×g for 10 minutes. The supernatant and white blood cell layer were discarded, while the red blood cells were washed three times with PBS until the supernatant became colorless and transparent. A 2% red blood cell suspension was then prepared using PBS. For the positive control, 0.2 mL of 1% Triton X‐100 was mixed with 0.8 mL of the red blood cell suspension. The negative control consisted of 0.2 mL of PBS combined with 0.8 mL of the red blood cell suspension. In the experimental group, 0.2 mL of MPOP‐03 (prepared at gradient concentrations) was added to 0.8 mL of the red blood cell suspension. Three replicates were prepared for each group. All samples were incubated at 37°C in a constant temperature water bath for 3 hours. Following incubation, the samples were centrifuged at 1500×g for 5 minutes, and the supernatants were carefully aspirated and transferred to new centrifuge tubes. The optical density values of the samples were measured at a wavelength of 524 nm using a microplate reader. The hemolysis ratio was calculated as follows (A represents absorbance): (12) %Hemolysis ratio=Asample−Anegative/Apositive−Anegative×100

Sequence | MIC S. aureus (S. aureus BNCC186335) | MIC B. subtilis (B. subtilis BNCC109047) | MIC E. coli (E. coli BL21(DE3)) | CC50 (MC3T3-E1) (MC3T3-E1 cells) | MIC against E. coli XJ19025100 (E. coli XJ19025100) | CC50 for CH3 [1] | CC50 for CH3 ([1]; 48 h) | CC50 for MC3T3-E1 (MC3T3-E1 cells; 48 h) | HC50 (concentration required to induce 50% hemolysis of red blood cells) (human red blood cells)
DPFGIMSKLQQFIRKFYQSLKHLKT [MPOP-01] | 4 µg/mL | 8 µg/mL | 128 µg/mL | 24 µg/mL |  |  |  |  | 
GGGGMLKYFKTAIHTIKKIGQKIVN [MPOP-04] | 4 µg/mL | 4 µg/mL | 16 µg/mL | 22 µg/mL |  |  |  |  | 
GIGKFLHSFTKFFSKIMNAIR [MPOP-07] | 4 µg/mL | 4 µg/mL |  | 35 µg/mL |  |  |  |  | 
GLFDVIKKIAEMVSNGYHTVKKKF [MPOP-08] | 4 µg/mL | 4 µg/mL | 32 µg/mL | 24 µg/mL |  |  |  |  | 
IGSFKHVFKRITSMAKAIR [MPOP-10] | 32 µg/mL | 32 µg/mL | 256 µg/mL |  |  |  |  |  | 
IKGIIKTIKKMASHFLHSAS [MPOP-09] | 8 µg/mL | 8 µg/mL | 16 µg/mL | 118 µg/mL |  |  |  |  | 
KLFRVVKKMFHSVFSSIHKYFR [MPOP-06] | 8 µg/mL | 8 µg/mL | 32 µg/mL | 20 µg/mL |  |  |  |  | 
LHQIKSVIKTAMNVLSGLFSAIKKK [MPOP-02] | 4 µg/mL | 4 µg/mL | 32 µg/mL | 15 µg/mL |  |  |  |  | 
MSKFKHFFNAVKSIFRGLTK [MPOP-03] |  | 2 µg/mL |  | 85 µg/mL | ≤ 8 µg/mL | 32.47 µg/mL | 34.27 µg/mL | 84.96 µg/mL | 256 µg/mL
VMKRIGTILSGLHSLLSKIF [MPOP-05] | 4 µg/mL | 4 µg/mL | 32 µg/mL | 28 µg/mL |  |  |  |  | 

Source: article PMC12520537, “A Multi‐Property Optimizing Generative Adversarial Network for de novo Antimicrobial Peptide Design” (Advanced Science, 2025)
